Reference: patent US9723838B2, “Pyrazolyl amide compounds and uses thereof” (SHENYANG SINOCHEM AGROCHEMICALS R&D CO., LTD., priority 2013, dated 2017)
Read-outs that look alike come from different tables or passages of the source.

Columns and labels:
green peach aphid = test: Test against green peach aphid (spraying); type: in vivo; settings: for mortality at 2.5 ppm / mortality at 5 ppm / mortality at 10 ppm / mortality at 100 ppm / mortality at 600 ppm: Myzus persicae; for mortality at 100 ppm / mortality at 600 ppm: read-out: mortality against green peach aphid; for Mortality (%): parallel test
Experimental: According to the solubility of test compounds, the compounds are dissolved in acetone or dimethyl sulfoxide, and then diluted with 0.1% aqueous solution of Tween 80 to form the test liquid 50 ml, the content of acetone or dimethyl sulfoxide in the total solution is not more than 10%.
The 6 cm diameter Petri dish with a layer of filter paper was chosen, a moderate amount of water was added to preserve moisture. A suitable piece of cabbage leaf with 30-50 green peach aphids was excised from a culture plant. Remove the winged and positive aphids, the leaf was placed to the Petri dish above with back upward. The test compounds were sprayed on both sides of the leaf by Airbrush (spray pressure: 10 psi, equate to 0.7 kg/cm^2; spray volume: 0.5 mL; spray distance: 15-20 cm). The treated Petri dishes were placed in a chamber of 23-25° C., 40%-60% relative humidity, L/D 13 h: 11 h. To keep the leaf fresh, a moderate amount of water was added to the Petri dish during the observation. After 48 h, the number of surviving insects was investigated and the mortality rates were calculated.

army worm = test: Test against army worm (corn leaf spraying); type: in vivo; settings: for Mortality (%): parallel test
Experimental: The test method is spraying. The middle part of fresh corn leaves were chosen and cut into 3 cm sects. The test compounds were sprayed on both sides of the sects by Airbrush according to the designed concentration from low to high dose. The sects were placed in 6 cm diameter Petri dish with filter paper. Ten test insects (3 instar) were introduced on each treatment after drying. Each treatment set the pure water as CK. The treated sects were placed in a certain condition. After 72 h, the number of surviving insects was investigated and the mortality rates were calculated.

diamondback moth = test: Test against diamondback moth (leaf disc spraying); type: in vivo; settings: for mortality at 0.156 ppm / mortality at 0.313 ppm / mortality at 0.63 ppm / mortality at 10 ppm / mortality at 100 ppm: Plutella xylostella, foliar; for mortality at 10 ppm / mortality at 100 ppm: read-out: mortality against diamondback moth; for Mortality (%): parallel test
Text: The test method is spraying. The leaves of cabbage grown in greenhouse were chosen, removed the surface waxy layer and perforated to get 3 cm diameter leaf discs by the hole puncher. The test compounds were sprayed on both sides of the discs by Airbrush according to the designed concentration from low to high dose. The cabbage discs were placed in 6 cm diameter Petri dish with filter paper. Tentest insects (3 instar) were introduced on each treatment after drying. Each treatment set the pure water as CK. The treated discs were placed in a certain condition. After 72 h, the number of surviving insects was investigated and the mortality rates were calculated.

black bean aphid = test: Test of absorption activity (horsebean seedling, solution poured into cup); type: in vivo; settings: Aphis fabae, after 48 h; for mortality at 0.625 µg/mL: 0.625 mg/L; for mortality at 2.5 µg/mL: 2.5 mg/L; for mortality at 10 µg/mL: 10 mg/L
Experimental: The 3 cm horsebean seedling that pre-infested by a certain number of black bean aphids (2 days instar) was chosen and transplanted to a paper cup loaded with fine sand. According to the test, the test compounds were treated to a solution and poured into the cup. After 48 h, the number of surviving insects was investigated and the mortality rates were calculated.

apple tree aphids = test: Field test against apple tree aphids; type: in vivo; settings: for mortality at 25 µg/mL: dose 25 mg/L; for mortality at 50 µg/mL: dose 50 mg/L
Experimental: The test was carried out in the institute of pomology of CAAS orchard in June 2014, using starkrimson as the test sample, the apple tree aphids were in preliminary stage. The test method is spraying using the stretcher power sprayer (ZL-22-160), each treatment repeated 4 times. The number of initial aphids was investigated before spraying. After 2 days, 7 days, 14 days, the number of surviving aphids was investigated respectively and the control efficiency were calculated. 10% Cyantraniliprole SC was commercial available which was bought from DuPont Agricultural Chemicals Ltd., Shanghai.

cabbage aphids = test: Field test against cabbage aphids; type: in vivo
Experimental: The test was carried out in the institute of Vegetables and Flowers Chinese Academy of Agriculture Sciences Nankou base, using cabbages (JINGFENG) as the test plant. The test compounds dosage were 15 g a.i./hm^2 and 10% Cyantraniliprole SC dosage was 30 g a.i./hm^2 which were sprayed evenly to the whole plant using backpack manual sprayer (“MATABI” SUPER GREEN 16) at the spray volume of 750 L/hm^2. Each treatment repeated 4 times, arranged with randomized blocks. 5 spots were chosen from each area using diagonal method, each spot contains 2 cabbages, the 10 cabbages above were investigated in the area. The number of initial cabbage aphids was investigated before spraying. After 1 day, 3 days, 7 days, 14 days, the number of surviving aphids was investigated respectively and the control efficiency were calculated. decline ratio of insect (%)=(insect number before pesticide application−insect number after pesticide application)/(insect number before pesticide application)×100% control efficiency (%)=(treatment area decline ratio of insect−CK area decline ratio of insect)/(100−CK area decline ratio of insect)×100% Calculation Method:
10% Cyantraniliprole SC was bought from DuPont Agricultural Chemicals Ltd., Shanghai.

armyworm = settings: disclosed in CN1653051A; cited from earlier work
diamond back moth = settings: disclosed in CN1653051A; cited from earlier work
[1] = 72 h, read-out: mortality against army worm
[2] = 10 ppm, spraying, after 72 h, read-out: mortality against army worm
[3] = 100 ppm, spraying, after 72 h, read-out: mortality against army worm

| SMILES | mortality at 2.5 ppm (green peach aphid; 48 h) | mortality at 5 ppm (green peach aphid; 48 h) | mortality at 10 ppm (green peach aphid; 48 h) | mortality at 100 ppm (green peach aphid; 48 h) | mortality at 600 ppm (green peach aphid; 48 h) | mortality at 2.5 ppm (army worm; 72 h) | mortality at 5 ppm (army worm; 72 h) | mortality at 10 ppm (army worm; 72 h) | mortality at 100 ppm (army worm; [1]) | mortality at 0.156 ppm (diamondback moth; 72 h) | mortality at 0.313 ppm (diamondback moth; 72 h) | mortality at 0.63 ppm (diamondback moth; 72 h) | mortality at 10 ppm (diamondback moth; 72 h) | mortality at 100 ppm (diamondback moth; 72 h) | mortality at 600 ppm (green peach aphid; 600 ppm, spraying, after 48 h) | mortality at 10 ppm (army worm; [2]) | mortality at 100 ppm (army worm; [3]) | mortality at 10 ppm (diamondback moth; 10 ppm, spraying, after 72 h) | mortality at 100 ppm (diamondback moth; 100 ppm, spraying, after 72 h) | mortality at 0.625 µg/mL (black bean aphid) | other results |
| --- | --- | --- | --- | --- | --- | --- | --- | --- | --- | --- | --- | --- | --- | --- | --- | --- | --- | --- | --- | --- | --- |
| CC(C)(NC(=O)c1cc(Br)cc(Br)c1NC(=O)c1cc(Br)nn1-c1ncccc1Cl)C(N)=O [Compound 1.10] | 100% | 100% | 100% | ≥ 80% | ≥ 80% | 62.5% | 87.5% | 100% | ≥ 80% | 62.5% | 81.3% | 100% | ≥ 80% | ≥ 80% | – | – | – | – | – | – | – |
| CC1(C)N=C(c2cc(Cl)cc(Cl)c2NC(=O)c2cc(Cl)nn2-c2ncccc2Cl)NC1=O [Compound 1.20] | – | – | – | – | – | – | – | – | – | – | – | – | – | – | ≥ 80% | ≥ 80% | ≥ 80% | ≥ 80% | ≥ 80% | – | mortality at 100 ppm (green peach aphid; 100 ppm, spraying, after 48 h): ≥ 80% |
| CNC(=O)c1cc(C#N)cc(C)c1NC(=O)c1cc(Br)nn1-c1ncccc1Cl [Cyantraniliprole, reference compound] | – | – | – | – | – | – | – | – | – | – | – | – | – | – | – | – | – | – | – | 30% | mortality at 2.5 µg/mL (black bean aphid): 54.6%; mortality at 10 µg/mL (black bean aphid): 100% |
| CC(C)(NC(=O)c1cc(Cl)cc(Cl)c1NC(=O)c1cc(Cl)nn1-c1ncccc1Cl)C(N)=O [Compound 1.3] | 100% | 100% | 100% | ≥ 80% | ≥ 80% | 64.3% | 81.2% | 100% | ≥ 80% | 87.5% | 100% | 100% | ≥ 80% | ≥ 80% | – | – | – | – | – | 100% | mortality at 2.5 µg/mL (black bean aphid): 100%; mortality at 10 µg/mL (black bean aphid): 100%; mortality at 10 ppm (army worm; [1]): ≥ 80%; mortality at 25 µg/mL (apple tree aphids; 48 h, 2 day): 78.9%; mortality at 50 µg/mL (apple tree aphids; 48 h, 2 day): 83.5%; mortality at 25 µg/mL (apple tree aphids; 168 h, 7 day): 93.5%; mortality at 50 µg/mL (apple tree aphids; 168 h, 7 day): 96.1%; mortality at 25 µg/mL (apple tree aphids; 336 h, 14 day): 93.1%; mortality at 50 µg/mL (apple tree aphids; 336 h, 14 day): 96.7%; Mortality (%) (cabbage aphids; dose 15 g a.i./hm^2, 1 d): 80.78 c %; Mortality (%) (cabbage aphids; dose 15 g a.i./hm^2, 3 d): 87.22 b %; Mortality (%) (cabbage aphids; dose 15 g a.i./hm^2, 7 d): 92.57 ab %; Mortality (%) (cabbage aphids; dose 15 g a.i./hm^2, 14 d): 91.77 ab % |
| CC1(C)N=C(c2cc(Cl)cc(Cl)c2NC(=O)c2cc(Br)nn2-c2ncccc2Cl)NC1=O [Compound 1.21] | – | – | – | – | – | – | – | – | – | – | – | – | – | – | ≥ 80% | ≥ 80% | ≥ 80% | ≥ 80% | ≥ 80% | – | – |
| CC(NC(=O)c1cc(Br)cc(Br)c1NC(=O)c1cc(Br)nn1-c1ncccc1Cl)C(N)=O (stereo not shown) [KC1, reference compound] | 0% | 0% | 15.1% | – | – | 0% | 0% | 18% | – | 0% | 20% | 33.3% | – | – | – | – | – | – | – | – | insecticidal activity against armyworm (armyworm): high activity; insecticidal activity against diamond back moth (diamond back moth): high activity |
| CC1(C)N=C(c2cc(Br)cc(Br)c2NC(=O)c2cc(Br)nn2-c2ncccc2Cl)NC1=O [Compound 1.27] | – | – | – | – | – | – | – | – | – | – | – | – | – | – | ≥ 80% | ≥ 80% | ≥ 80% | ≥ 80% | ≥ 80% | – | mortality at 100 ppm (green peach aphid; 100 ppm, spraying, after 48 h): ≥ 80% |
| CC(NC(=O)c1cc(F)cc(Cl)c1NC(=O)c1cc(Br)nn1-c1ncccc1Cl)C(N)=O (stereo not shown) [KC2, reference compound] | 0% | 57.6% | 70.4% | – | – | 0% | 16.7% | 61.6% | – | 30% | 45.8% | 63.2% | – | – | – | – | – | – | – | – | insecticidal activity against armyworm (armyworm): high activity; insecticidal activity against diamond back moth (diamond back moth): high activity |
| CC(C)(NC(=O)c1cc(F)cc(Cl)c1NC(=O)c1cc(Br)nn1-c1ncccc1Cl)C(N)=O [Compound 1.8] | – | – | – | – | – | – | – | – | – | – | – | – | – | – | – | – | – | – | – | – | Mortality (%) (green peach aphid; 2.5 ppm, after 48 h): 89.3%; Mortality (%) (green peach aphid; 5 ppm, after 48 h): 100.0%; Mortality (%) (green peach aphid; 10 ppm, after 48 h): 100.0%; Mortality (%) (army worm; 2.5 ppm, after 72 h): 43.7%; Mortality (%) (army worm; 5 ppm, after 72 h): 50.0%; Mortality (%) (army worm; 10 ppm, after 72 h): 100%; Mortality (%) (diamondback moth; 0.156 ppm, after 72 h): 52.1%; Mortality (%) (diamondback moth; 0.313 ppm, after 72 h): 75%; Mortality (%) (diamondback moth; 0.63 ppm, after 72 h): 100% |
| CC(C)(NC(=O)c1cc(Cl)cc(Cl)c1NC(=O)c1cc(Br)nn1-c1ncccc1Cl)C(N)=O [Compound 1.4] | 90.1% | 100% | 100% | ≥ 80% | ≥ 80% | 50% | 86.6% | 92.8% | ≥ 80% | 100% | 100% | 100% | ≥ 80% | ≥ 80% | – | – | – | – | – | 100% | mortality at 2.5 µg/mL (black bean aphid): 100%; mortality at 10 µg/mL (black bean aphid): 100%; mortality at 10 ppm (army worm; [1]): ≥ 80%; Mortality (%) (cabbage aphids; dose 15 g a.i./hm^2, 1 d): 84.40 abc %; Mortality (%) (cabbage aphids; dose 15 g a.i./hm^2, 3 d): 91.03 ab %; Mortality (%) (cabbage aphids; dose 15 g a.i./hm^2, 7 d): 95.58 ab %; Mortality (%) (cabbage aphids; dose 15 g a.i./hm^2, 14 d): 91.79 ab % |
